Measurements taken from US7473669B2, “Substituted 4,5-dihydro-1,2,4-triazin-6-ones, 1,2,4-triazin-6-ones, and their use as fungicides” (priority 2005, dated 2009).
Like-named read-outs stand apart in the source and are kept apart here.

Experiments:
Assay type in all cases: in vivo
[1] = test system: Puccinia recondita tritici; assay: Leaf Rust of Wheat greenhouse one-day protectant test; details: 24 h, read-out: PUCCRT percent control rating
Erysiphe cichoracaerum = assay: Cucumber Powdery Mildew greenhouse one-day protectant test; details: 24 h, read-out: ERYSCI percent control rating
Pyricularia oryzae = assay: whole plant or invertebrate; details: 24 h, read-out: PYRIOR percent control rating
Colletotricum lagenarium = assay: Cucumber Anthracnose greenhouse one-day protectant test; details: Cucumis sativus, 24 h, read-out: COLLLA percent control rating
Phytophthora infestans = assay: whole plant or invertebrate; details: in Solanum lycopersicum, 24 h
Leptosphaeria nodorum = assay: Glume Blotch of Wheat greenhouse one-day protectant test; details: Parastagonospora nodorum, 24 h, read-out: LEPTNO percent control rating
[2] = wheat plants, one-day protectant test, 200 ppm application rate
[3] = cucumber plants, one-day protectant test, 200 ppm application rate
[4] = read-out: PHYTIN percent control rating, tomato plants, one-day protectant test, 200 ppm application rate

| Structure (SMILES) | pest or weed control at 200 ppm [1, 2] [%] | pest or weed control at 200 ppm (Erysiphe cichoracaerum; [3]) [%] | pest or weed control at 200 ppm (Pyricularia oryzae) [%] | pest or weed control at 200 ppm (Colletotricum lagenarium; [3]) [%] | pest or weed control at 200 ppm (Phytophthora infestans; [4]) [%] | pest or weed control at 200 ppm (Leptosphaeria nodorum; [2]) [%] | pest or weed control at 200 ppm [1] [%] | pest or weed control at 200 ppm (Erysiphe cichoracaerum) [%] | pest or weed control at 200 ppm (Colletotricum lagenarium) [%] | pest or weed control at 200 ppm (Phytophthora infestans; read-out: PHYTIN percent control rating) [%] | pest or weed control at 200 ppm (Leptosphaeria nodorum) [%] |
| --- | --- | --- | --- | --- | --- | --- | --- | --- | --- | --- | --- |
| CS(=O)(=O)OCCN1N=C(c2ccc(Cl)nc2)NCC1=O [Compound 1] | 0 to 49 | 0 to 49 | 50 to 79 | 0 to 49 | 0 to 49 | 0 to 49 |  |  |  |  |  |
| Cc1cc(C)cc(C2=NN(CCO)C(=O)CN2)c1 [Compound 2] | 0 to 49 | 0 to 49 | 80 to 100 | 0 to 49 | 0 to 49 | 0 to 49 |  |  |  |  |  |
| Cc1cc(C)cc(C2=NN(CCOC(=O)Nc3ccc4c(c3)OCO4)C(=O)CN2)c1 [Compound 3] | 80 to 100 | 0 to 49 | 80 to 100 | 50 to 79 | 0 to 49 | 50 to 79 |  |  |  |  |  |
| O=C1CNC(c2ccccc2)=NN1CCO [Compound 4] | 0 to 49 | 0 to 49 | 0 to 49 | 0 to 49 | 0 to 49 | 0 to 49 |  |  |  |  |  |
| Cc1cc(C)cc(C2=NN(Cc3ccccn3)C(=O)CN2)c1 [Compound 5] | 0 to 49 | 0 to 49 | 0 to 49 | 50 to 79 | 0 to 49 | 80 to 100 |  |  |  |  |  |
| O=C1CNC(c2cc(Cl)cc(Cl)c2)=NN1Cc1ccccn1 [Compound 6] | 80 to 100 | 0 to 49 | 80 to 100 | 50 to 79 | 0 to 49 | 80 to 100 |  |  |  |  |  |
| O=C1CNC(c2cc(Cl)cc(Cl)c2)=NN1CCO [Compound 7] | 50 to 79 | 0 to 49 | 0 to 49 | 0 to 49 | 0 to 49 | 50 to 79 |  |  |  |  |  |
| O=C1CNC(c2cc(Cl)cc(Cl)c2)=NN1CO [Compound 8] | 0 to 49 | 0 to 49 | 0 to 49 | 0 to 49 | 0 to 49 | 50 to 79 |  |  |  |  |  |
| O=C1CNC(c2ccc(Cl)c(Cl)c2)=NN1CO [Compound 9] | 50 to 79 | 0 to 49 | 0 to 49 | 0 to 49 | 0 to 49 | 80 to 100 |  |  |  |  |  |
| O=C1CNC(c2ccc(Cl)c(Cl)c2)=NN1C(=O)C(F)(F)F [Compound 10] | 0 to 49 | 0 to 49 | 80 to 100 | 50 to 79 | 0 to 49 | 50 to 79 |  |  |  |  |  |
| O=C1CNC(c2cc(Cl)cc(Cl)c2)=NN1C(=O)C(F)(F)F [Compound 11] | 0 to 49 | 0 to 49 | 50 to 79 | 50 to 79 | 0 to 49 | 50 to 79 |  |  |  |  |  |
| CC(=O)OCN1N=C(c2ccc(Cl)c(Cl)c2)NCC1=O [Compound 14] | 50 to 79 | 0 to 49 | 0 to 49 | 0 to 49 | 0 to 49 | 0 to 49 |  |  |  |  |  |
| O=C1CNC(c2cc(Cl)cc(Cl)c2)=NN1CN1CCOCC1 [Compound 15] | 0 to 49 | 0 to 49 | 80 to 100 | 0 to 49 | 0 to 49 | 50 to 79 |  |  |  |  |  |
| CCCCN1N=C(c2ccc(Oc3cccnc3)cc2)NCC1=O [Compound 16] | 80 to 100 | 0 to 49 | 0 to 49 | 0 to 49 | 0 to 49 | 0 to 49 |  |  |  |  |  |
| O=C1CNC(c2cccc(OCc3ccccc3)c2)=NN1CC(F)(F)F [Compound 17] | 80 to 100 | 0 to 49 | 80 to 100 | 80 to 100 | 0 to 49 | 80 to 100 |  |  |  |  |  |
| N#CCCN1N=C(c2cccc(OCc3ccccc3)c2)NCC1=O [Compound 18] | 80 to 100 | 0 to 49 | 50 to 79 | 50 to 79 | 0 to 49 | 50 to 79 |  |  |  |  |  |

| Structure (SMILES) | pest or weed control at 200 ppm [1, 2] [%] | pest or weed control at 200 ppm (Erysiphe cichoracaerum; [3]) [%] | pest or weed control at 200 ppm (Pyricularia oryzae) [%] | pest or weed control at 200 ppm (Colletotricum lagenarium; [3]) [%] | pest or weed control at 200 ppm (Phytophthora infestans; [4]) [%] | pest or weed control at 200 ppm (Leptosphaeria nodorum; [2]) [%] | pest or weed control at 200 ppm [1] [%] | pest or weed control at 200 ppm (Erysiphe cichoracaerum) [%] | pest or weed control at 200 ppm (Colletotricum lagenarium) [%] | pest or weed control at 200 ppm (Phytophthora infestans; read-out: PHYTIN percent control rating) [%] | pest or weed control at 200 ppm (Leptosphaeria nodorum) [%] |
| --- | --- | --- | --- | --- | --- | --- | --- | --- | --- | --- | --- |
| O=C1CNC(c2cccc(OCc3ccccc3)c2)=NN1CCF [Compound 19] | 80 to 100 | 0 to 49 | 50 to 79 | 0 to 49 | 0 to 49 | 50 to 79 |  |  |  |  |  |
| O=C1CNC(c2cccc(OCc3ccccc3)c2)=NN1Cc1ccccc1 [Compound 20] | 80 to 100 | 0 to 49 | 80 to 100 | 0 to 49 | 0 to 49 | 50 to 79 |  |  |  |  |  |
| O=C1CNC(c2cccc(OCc3ccccc3)c2)=NN1c1cccc(Br)c1 [Compound 21] | 50 to 79 | 0 to 49 | 80 to 100 | 0 to 49 | 0 to 49 | 50 to 79 |  |  |  |  |  |
| O=C1CNC(c2cccc(O)c2)=NN1CC(F)(F)F [Compound 22] | 50 to 79 | 0 to 49 | 0 to 49 | 0 to 49 | 0 to 49 | 0 to 49 |  |  |  |  |  |
| O=C1CNC(c2cccc(OS(=O)(=O)C(F)(F)F)c2)=NN1CC(F)(F)F [Compound 23] | 50 to 79 | 0 to 49 | 80 to 100 | 0 to 49 | 0 to 49 | 50 to 79 |  |  |  |  |  |
| O=C1CNC(c2cccc(Oc3cc(C(F)(F)F)cc(C(F)(F)F)n3)c2)=NN1CC(F)(F)F [Compound 24] | 80 to 100 | 0 to 49 | 0 to 49 | 0 to 49 | 0 to 49 | 80 to 100 |  |  |  |  |  |
| O=C(Nc1c(Cl)cccc1Cl)Oc1cccc(C2=NN(CC(F)(F)F)C(=O)CN2)c1 [Compound 25] |  |  | 0 to 49 |  |  |  | 0 to 49 | 0 to 49 | 0 to 49 | 0 to 49 | 0 to 49 |
| O=C1CNC(c2cc(C=Cc3ccccc3)cc(-c3ccsc3)c2)=NN1CC(F)(F)F [Compound 26] | 0 to 49 | 0 to 49 | 0 to 49 | 0 to 49 | 0 to 49 | 50 to 79 |  |  |  |  |  |
| O=C1CNC(c2cccc(Oc3nc4ccc(Cl)cc4s3)c2)=NN1CC(F)(F)F [Compound 27] | 80 to 100 | 0 to 49 | 80 to 100 | 50 to 79 | 0 to 49 | 80 to 100 |  |  |  |  |  |
| O=C1CNC(c2cccc(Oc3nnnn3-c3ccccc3)c2)=NN1CC(F)(F)F [Compound 28] | 0 to 49 | 0 to 49 | 50 to 79 | 0 to 49 | 0 to 49 | 50 to 79 |  |  |  |  |  |
| O=C1CNC(c2cccc(-c3ccc(Cl)s3)c2)=NN1CC(F)(F)F [Compound 29] | 80 to 100 | 0 to 49 | 50 to 79 | 0 to 49 | 0 to 49 | 80 to 100 |  |  |  |  |  |
| O=C1CNC(c2cccc(-c3ccc(Oc4ccccc4)cc3)c2)=NN1CC(F)(F)F [Compound 30] | 50 to 79 | 0 to 49 | 0 to 49 | 0 to 49 | 0 to 49 | 50 to 79 |  |  |  |  |  |
| O=C1CNC(c2cccc(Oc3ncccn3)c2)=NN1CC(F)(F)F [Compound 31] | 0 to 49 | 0 to 49 | 0 to 49 | 0 to 49 | 0 to 49 | 50 to 79 |  |  |  |  |  |
| CNc1cc(F)nc(Oc2cccc(C3=NN(CC(F)(F)F)C(=O)CN3)c2)n1 [Compound 32] | 50 to 79 | 0 to 49 | 0 to 49 | 0 to 49 | 0 to 49 | 80 to 100 |  |  |  |  |  |
| O=C1C(SC2CCCCC2)NC(c2ccc(F)c(-c3ccccc3)c2)=NN1CC(F)(F)F (stereo not shown) [Compound 48] | 80 to 100 | 0 to 49 | 80 to 100 |  |  | 80 to 100 |  |  |  |  |  |
